A value given as a limit tells only on which side of the number the result lay.

The values that follow come from ChEMBL document CHEMBL3352148, “Docking based virtual screening and molecular dynamics study to identify potential monoacylglycerol lipase inhibitors” (Bioorg Med Chem Lett, 2014).

The nature of series [1]: Predicted human oral absorption (QikProp). Particulars: in silico.
A short description of series [2]: Retention time of the compound by UPLC-MS/MS method. The format is physicochemical.
The target of another series is T1, Monoglyceride lipase (Homo sapiens, UniProt Q99685).
T1 sequence (Q99685 whole entry): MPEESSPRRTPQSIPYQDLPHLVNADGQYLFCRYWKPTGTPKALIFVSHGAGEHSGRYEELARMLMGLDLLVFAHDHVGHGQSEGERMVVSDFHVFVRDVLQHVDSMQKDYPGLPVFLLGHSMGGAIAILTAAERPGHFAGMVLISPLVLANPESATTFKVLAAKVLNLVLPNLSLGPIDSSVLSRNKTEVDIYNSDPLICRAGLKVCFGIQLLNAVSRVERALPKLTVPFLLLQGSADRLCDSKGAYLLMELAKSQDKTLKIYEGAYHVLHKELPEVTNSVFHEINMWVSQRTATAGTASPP
Description: Inhibition of human MAGL using 4-Nitrophenylacetate substrate incubated for 15 mins.

In the case of `O=C(NCc1ccc2c(c1)OCO2)[C@H]1CC(=O)N(c2ccc(OCc3ccccc3Cl)cc2)C1`, the Fa in series [1] is 100%. Turning to `Cc1ccc(N2C[C@H](C(=O)NCc3n[nH]c(=O)c4ccccc34)CC2=O)cc1C`, the Fa in series [1] is 77.9%. The molecule also displayed a Retention_time in series [2] of 1.68 min.

One may read the IC50 as the concentration at which inhibition is half-maximal. Higher therefore signals lower potency. With `C[C@H]1CCCC[C@@H]1NC(=O)CC[C@@H]1NC(=O)N(CCc2c[nH]c3ccc(F)cc23)C1=O`, the Fa in series [1] was 90.7%. The molecule further gave a Retention_time in series [2] of 2.26 min. The molecule also yielded an IC50 against Monoglyceride lipase of over 100 µM. As to `Cc1cc(C)cc(NC(=O)[C@@H]2CC(=O)N(CCc3c[nH]c4ccc(F)cc34)C2)c1`, the Fa in series [1] was 100%. In series [2], this molecule gave a Retention_time of 1.55 min. Taken in the same sequence, the figures for `O=C(Cn1nnc2ccccc21)Nc1ccc(-c2nc3ccccc3s2)cc1` were 100% and 1.72 min. For `O=C(COc1ccc2ccccc2c1)Nn1ccc2c(nnc3c(-c4ccc(F)cc4)cnn32)c1=O`, in series [1], the Fa is 100%. The molecule also had a Retention_time in series [2] of 1.29 min. This molecule displayed an IC50 against Monoglyceride lipase of over 100 µM. As for `O=C(NCc1ccc2c(c1)OCO2)[C@@H]1CC(=O)N(c2ccc(OCc3ccccc3Cl)cc2)C1`, the Retention_time in series [2] was 2.01 min. As to `COc1ccc2cc(-c3nc4sc(C(=O)Nc5ccccc5OC)cc4c(=O)[nH]3)c(=O)oc2c1`, the Fa in series [1] was 80.4%. `COc1nn(-c2ccc(NC(=O)OCc3ccccc3)c(C)c2)c(=O)o1` showed an IC50 at Monoglyceride lipase of 0.02 µM.
